The NIST ThermoML archive (doi:10.1016/j.jct.2013.10.034)

Experiment: xn = mol fraction of the nth substance listed
Conditions: 100 kPa, Liquid; for viscosity: Falling or rolling sphere viscometry; for mass density: Vibrating tube method

CCCC[N+]1(C)CCCC1.N#CN=C=[N-] [1-butyl-1-methylpyrrolidinium dicyanamide] + O
Conditions | mass density [kg/m3] | viscosity [mPa·s]
298.15 K, x1 = 0.0729 | 1007.24 | 4.316
298.15 K, x1 = 0.1652 | 1012.47 | 7.983
298.15 K, x1 = 0.2234 | 1014.18 | 9.939
298.15 K, x1 = 0.3163 | 1015.68 | 12.88
298.15 K, x1 = 0.3548 | 1016.11 | 13.94
298.15 K, x1 = 0.4198 | 1016.65 | 15.86
298.15 K, x1 = 0.4762 | 1016.99 | 17.41
298.15 K, x1 = 0.5239 | 1017.27 | 18.57
298.15 K, x1 = 0.6244 | 1017.71 | 21.49
298.15 K, x1 = 0.629 | 1017.73 | 21.62
298.15 K, x1 = 0.711 | 1018.09 | 24.03
298.15 K, x1 = 0.7413 | 1018.22 | 24.99
298.15 K, x1 = 0.8776 | 1018.79 | 29.68
298.15 K, x1 = 0.9732 | 1019.13 | 33.6
298.15 K, x1 = 1 | 1019.2 | 34.74
303.15 K, x1 = 0.0729 | 1004.74 | 3.713
303.15 K, x1 = 0.1652 | 1009.29 | 6.795
303.15 K, x1 = 0.2234 | 1010.84 | 8.502
303.15 K, x1 = 0.3163 | 1012.43 | 11.02
303.15 K, x1 = 0.3548 | 1012.9 | 11.96
303.15 K, x1 = 0.4198 | 1013.55 | 13.57
303.15 K, x1 = 0.4762 | 1014 | 14.9
303.15 K, x1 = 0.5239 | 1014.32 | 15.9
303.15 K, x1 = 0.6244 | 1014.87 | 18.37
303.15 K, x1 = 0.629 | 1014.89 | 18.48
303.15 K, x1 = 0.711 | 1015.28 | 20.5
303.15 K, x1 = 0.7413 | 1015.41 | 21.31
303.15 K, x1 = 0.8776 | 1015.96 | 25.19
303.15 K, x1 = 0.9732 | 1016.28 | 28.4
303.15 K, x1 = 1 | 1016.38 | 29.33
308.15 K, x1 = 0.0729 | 1001.6 | 3.226
308.15 K, x1 = 0.1652 | 1006.1 | 5.903
308.15 K, x1 = 0.2234 | 1007.7 | 7.346
308.15 K, x1 = 0.3163 | 1009.37 | 9.521
308.15 K, x1 = 0.3548 | 1009.87 | 10.37
308.15 K, x1 = 0.4198 | 1010.57 | 11.73
308.15 K, x1 = 0.4762 | 1011.05 | 12.88
308.15 K, x1 = 0.5239 | 1011.4 | 13.75
308.15 K, x1 = 0.6244 | 1011.99 | 15.87
308.15 K, x1 = 0.629 | 1012.02 | 15.96
308.15 K, x1 = 0.711 | 1012.42 | 17.69
308.15 K, x1 = 0.7413 | 1012.56 | 18.34
308.15 K, x1 = 0.8776 | 1013.13 | 21.64
308.15 K, x1 = 0.9732 | 1013.47 | 24.32
308.15 K, x1 = 1 | 1013.58 | 25.09
313.15 K, x1 = 0.0729 | 998.69 | 2.83
313.15 K, x1 = 0.1652 | 1002.9 | 5.143
313.15 K, x1 = 0.2234 | 1004.59 | 6.408
313.15 K, x1 = 0.3163 | 1006.34 | 8.303
313.15 K, x1 = 0.3548 | 1006.88 | 9
313.15 K, x1 = 0.4198 | 1007.61 | 10.23
313.15 K, x1 = 0.4762 | 1008.11 | 11.23
313.15 K, x1 = 0.5239 | 1008.46 | 12
313.15 K, x1 = 0.6244 | 1009.1 | 13.83
313.15 K, x1 = 0.629 | 1009.13 | 13.91
313.15 K, x1 = 0.711 | 1009.55 | 15.4
313.15 K, x1 = 0.7413 | 1009.72 | 15.98
313.15 K, x1 = 0.8776 | 1010.35 | 18.78
313.15 K, x1 = 0.9732 | 1010.72 | 21.05
313.15 K, x1 = 1 | 1010.79 | 21.7
318.15 K, x1 = 0.0729 | 995.65 | 2.5
318.15 K, x1 = 0.1652 | 999.68 | 4.486
318.15 K, x1 = 0.2234 | 1001.37 | 5.632
318.15 K, x1 = 0.3163 | 1003.18 | 7.302
318.15 K, x1 = 0.3548 | 1003.78 | 7.982
318.15 K, x1 = 0.4198 | 1004.58 | 9.005
318.15 K, x1 = 0.4762 | 1005.15 | 9.9
318.15 K, x1 = 0.5239 | 1005.54 | 10.57
318.15 K, x1 = 0.6244 | 1006.25 | 12.17
318.15 K, x1 = 0.629 | 1006.28 | 12.24
318.15 K, x1 = 0.711 | 1006.71 | 13.55
318.15 K, x1 = 0.7413 | 1006.88 | 14.02
318.15 K, x1 = 0.8776 | 1007.51 | 16.46
318.15 K, x1 = 0.9732 | 1007.94 | 18.4
318.15 K, x1 = 1 | 1008 | 18.95
323.15 K, x1 = 0.0729 | 992.46 | 2.233
323.15 K, x1 = 0.1652 | 996.43 | 3.985
323.15 K, x1 = 0.2234 | 998.16 | 4.99
323.15 K, x1 = 0.3163 | 1000.13 | 6.467
323.15 K, x1 = 0.3548 | 1000.71 | 7.043
323.15 K, x1 = 0.4198 | 1001.58 | 7.978
323.15 K, x1 = 0.4762 | 1002.18 | 8.763
323.15 K, x1 = 0.5239 | 1002.64 | 9.377
323.15 K, x1 = 0.6244 | 1003.38 | 10.79
323.15 K, x1 = 0.629 | 1003.41 | 10.85
323.15 K, x1 = 0.711 | 1003.92 | 12
323.15 K, x1 = 0.7413 | 1004.07 | 12.45
323.15 K, x1 = 0.8776 | 1004.69 | 14.56
323.15 K, x1 = 0.9732 | 1005.09 | 16.24
323.15 K, x1 = 1 | 1005.23 | 16.72
328.15 K, x1 = 0.0729 | 989.39 | 2.005
328.15 K, x1 = 0.1652 | 993.17 | 3.59
328.15 K, x1 = 0.2234 | 994.93 | 4.448
328.15 K, x1 = 0.3163 | 997.04 | 5.765
328.15 K, x1 = 0.3548 | 997.72 | 6.295
328.15 K, x1 = 0.4198 | 998.6 | 7.116
328.15 K, x1 = 0.4762 | 999.26 | 7.819
328.15 K, x1 = 0.5239 | 999.74 | 8.369
328.15 K, x1 = 0.6244 | 1000.55 | 9.629
328.15 K, x1 = 0.629 | 1000.57 | 9.685
328.15 K, x1 = 0.711 | 1001.11 | 10.71
328.15 K, x1 = 0.7413 | 1001.26 | 11.1
328.15 K, x1 = 0.8776 | 1001.89 | 12.96
328.15 K, x1 = 0.9732 | 1002.31 | 14.43
328.15 K, x1 = 1 | 1002.48 | 14.84
333.15 K, x1 = 0.0729 | 985.91 | 1.807
333.15 K, x1 = 0.1652 | 989.89 | 3.196
333.15 K, x1 = 0.2234 | 991.81 | 3.98
333.15 K, x1 = 0.3163 | 994.04 | 5.16
333.15 K, x1 = 0.3548 | 994.76 | 5.643
333.15 K, x1 = 0.4198 | 995.72 | 6.375
333.15 K, x1 = 0.4762 | 996.34 | 7.009
333.15 K, x1 = 0.5239 | 996.85 | 7.517
333.15 K, x1 = 0.6244 | 997.67 | 8.64
333.15 K, x1 = 0.629 | 997.7 | 8.691
333.15 K, x1 = 0.711 | 998.24 | 9.609
333.15 K, x1 = 0.7413 | 998.46 | 9.96
333.15 K, x1 = 0.8776 | 999.13 | 11.62
333.15 K, x1 = 0.9732 | 999.61 | 12.92
333.15 K, x1 = 1 | 999.74 | 13.28
338.15 K, x1 = 0.0729 | 982.26 | 1.642
338.15 K, x1 = 0.1652 | 986.61 | 2.892
338.15 K, x1 = 0.2234 | 988.61 | 3.587
338.15 K, x1 = 0.3163 | 990.99 | 4.649
338.15 K, x1 = 0.3548 | 991.74 | 5.083
338.15 K, x1 = 0.4198 | 992.73 | 5.746
338.15 K, x1 = 0.4762 | 993.46 | 6.319
338.15 K, x1 = 0.5239 | 993.96 | 6.784
338.15 K, x1 = 0.6244 | 994.85 | 7.795
338.15 K, x1 = 0.629 | 994.9 | 7.841
338.15 K, x1 = 0.711 | 995.49 | 8.671
338.15 K, x1 = 0.7413 | 995.67 | 9
338.15 K, x1 = 0.8776 | 996.49 | 10.48
338.15 K, x1 = 0.9732 | 996.91 | 11.64
338.15 K, x1 = 1 | 997 | 11.96
343.15 K, x1 = 0.0729 | 979.39 | 1.496
343.15 K, x1 = 0.1652 | 983.31 | 2.593
343.15 K, x1 = 0.2234 | 985.46 | 3.24
343.15 K, x1 = 0.3163 | 988.01 | 4.199
343.15 K, x1 = 0.3548 | 988.75 | 4.587
343.15 K, x1 = 0.4198 | 989.8 | 5.195
343.15 K, x1 = 0.4762 | 990.47 | 5.717
343.15 K, x1 = 0.5239 | 991.03 | 6.142
343.15 K, x1 = 0.6244 | 991.95 | 7.061
343.15 K, x1 = 0.629 | 991.96 | 7.103
343.15 K, x1 = 0.711 | 992.62 | 7.857
343.15 K, x1 = 0.7413 | 992.85 | 8.116
343.15 K, x1 = 0.8776 | 993.62 | 9.492
343.15 K, x1 = 0.9732 | 994.09 | 10.53
343.15 K, x1 = 1 | 994.28 | 10.82
